Results from the supplement of paper PMC5908809.

Key:
[1] = test system: normal NK cells expanded with K562-aAPC; assay: percent inhibition of viability; higher = more inhibition; details: 72 h, IL-2 2.5 ng/mL
Method: (§1)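 Drug sensitivity and resistance testing on K562-aAPC-expanded normal NK cells: 5 concentrations (10-fold steps over a 10,000-fold range), 72 h at 37 °C, viability by CellTiter-Glo normalised to DMSO and benzethonium chloride controls; DSS from the fitted curve.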

[2] = test system: DERL-7 (IL-2 2.5 ng/mL); assay: as above; details: 72 h
[3] = test system: IMC-1 (IL-2 20 ng/mL); assay: as above; details: 72 h
[4] = test system: KAI3 (IL-2 2.5 ng/mL); assay: as above; details: 72 h
[5] = test system: KHYG-1 (IL-2 2.5 ng/mL); assay: as above; details: 72 h
[6] = test system: NK-92 (IL-2 2.5 ng/mL); assay: as above; details: 72 h
[7] = test system: NK-YS (IL-2 2.5 ng/mL); assay: as above; details: 72 h
[8] = test system: NKL (IL-2 2.5 ng/mL); assay: as above; details: 72 h
[9] = test system: SNK-6 (IL-2 2.5 ng/mL); assay: as above; details: 72 h
[10] = test system: YT (IL-2 2.5 ng/mL); assay: as above; details: 72 h
[11] = test system: normal primary NK cells, pool 1 (3 donors) (IL-2 2.5 ng/mL); assay: as above; details: 72 h
[12] = test system: normal primary NK cells, pool 1 (3 donors), resting (IL-2 0 ng/mL); assay: as above; details: 72 h
[13] = test system: normal primary NK cells, pool 2 (3 donors) (IL-2 2.5 ng/mL); assay: as above; details: 72 h
[14] = test system: normal primary NK cells, pool 3 (3 donors) (IL-2 2.5 ng/mL); assay: as above; details: 72 h
[15] = test system: normal NK cells expanded with K562-aAPC; assay: drug sensitivity score (DSS) (DSS units); higher = more sensitive; extreme values may be limits of the assay; details: 72 h; IL-2 2.5 ng/mL
Method: as §1

[16] = test system: DERL-7 (IL-2 2.5 ng/mL); assay: as above; details: 72 h
[17] = test system: IMC-1 (IL-2 20 ng/mL); assay: as above; details: 72 h
[18] = test system: KAI3 (IL-2 2.5 ng/mL); assay: as above; details: 72 h
[19] = test system: KHYG-1 (IL-2 2.5 ng/mL); assay: as above; details: 72 h
[20] = test system: NK-92 (IL-2 2.5 ng/mL); assay: as above; details: 72 h
[21] = test system: NK-YS (IL-2 2.5 ng/mL); assay: as above; details: 72 h
[22] = test system: NKL (IL-2 2.5 ng/mL); assay: as above; details: 72 h
[23] = test system: SNK-6 (IL-2 2.5 ng/mL); assay: as above; details: 72 h
[24] = test system: YT (IL-2 2.5 ng/mL); assay: as above; details: 72 h
[25] = test system: normal primary NK cells, pool 1 (3 donors) (IL-2 2.5 ng/mL); assay: as above; details: 72 h
[26] = test system: normal primary NK cells, pool 1 (3 donors), resting (IL-2 0 ng/mL); assay: as above; details: 72 h
[27] = test system: normal primary NK cells, pool 2 (3 donors) (IL-2 2.5 ng/mL); assay: as above; details: 72 h
[28] = test system: normal primary NK cells, pool 3 (3 donors) (IL-2 2.5 ng/mL); assay: as above; details: 72 h

COc1cccc2c1C(=O)c1c(O)c3c(c(O)c1C2=O)C[C@@](O)(C(C)=O)C[C@@H]3O[C@H]1C[C@H](N)[C@H](O)[C@H](C)O1 [Daunorubicin] (max concentration tested 1000 nM)
percent inhibition of viability [%]
Details	0.1 nM	1 nM	10 nM	100 nM	1000 nM
[1]	-6.49	-5.27	0.18	77.3	101
[2]	-3.3	-4.68	21.2	92.8	101
[3]	-9.54	-10.2	16.5	98.7	101
[4]	-5.78	-13.2	19.7	61.9	106
[5]	1.81	-4.06	-1.19	93.7	109
[6]	-16.2	-14.1	-9.07	89.9	109
[7]	-2.31	-8.67	23.9	77.1	106
[8]	-2.22	6.13	88.5	104	109
[9]	-12.6	-10.6	-5.61	97.8	94.5
[10]	-3.13	-9.89	-7.78	93.8	110
[11]	-16.8	-3.87	17.1	94.1	98.6
[12]	-16.4	-27.6	23.2	91.1	94
[13]	-11.1	-1.9	13	92.7	94.4
[14]	-11.8	-3.78	7.93	81.6	99.9

Details	drug sensitivity score
[15]	14.4
[16]	19.7
[17]	20.7
[18]	14.2
[19]	16.9
[20]	16
[21]	17.3
[22]	29.4
[23]	17.1
[24]	16.6
[25]	19.6
[26]	20.5
[27]	19.2
[28]	16.1

CCN(CC)C(=S)SSC(=S)N(CC)CC [Disulfiram] (max concentration tested 100000 nM)
percent inhibition of viability [%]
Details	10 nM	100 nM	1000 nM	10000 nM	100000 nM
[1]	-4.71	1.75	94.6	74	100
[2]	4.4	22.1	97.2	58.3	100
[3]	-0.36	2.91	74.2	44.6	101
[4]	0.03	-5.96	23.3	29.1	99.8
[5]	1.86	2.15	64.2	44.3	101
[6]	-0.19	-7.5	39.9	1.99	98.8
[7]	1.28	2.15	66.6	59.1	94.4
[8]	2.6	19.2	89.2	93.1	103
[9]	0.42	-19.7	11.4	-24.5	100
[10]	3.15	1.21	7.05	7.11	96.6
[11]	3.67	-0.96	99.8	99.5	101
[12]	-2.82	3.62	97.2	97.5	101
[13]	-8.13	11.6	98.6	98.2	101
[14]	-15.5	1.36	98.2	99.1	101

Details	drug sensitivity score
[15]	29.9
[16]	32.9
[17]	20
[18]	8.84
[19]	18.2
[20]	5.78
[21]	21.3
[22]	31.1
[23]	4.39
[24]	6.46
[25]	30.3
[26]	30.6
[27]	32.3
[28]	30.4
